In patent publication US8592448B2 (OSI Pharmaceuticals, LLC, priority 2008, dated 2013) one finds IC50 data, which are given here for 22 compounds.

A word on the IC50: it is the concentration at which inhibition is half-maximal.

One experiment deals with MKN45 cells. In words: MKN45 cell proliferation assay (CellTiter-Glo). It is filed as cell-based. The following applies: Homo sapiens, MKN-45, 72 h, MKN45 cell line, 3 days incubation, at least duplicate experiments, read-out: Prolif. IC50. Here is the method: The effect of inhibitors on the proliferation of MKN45 cells was determined using the following protocol. MKN45 cells were plated in Corning 3917 96-well white tissue culture treated plates in growth medium (RPMI, 10% FCS) at a density of 5000 cells/well in a total volume of 135 μL and incubated at 37° C., 5% CO2, 95% humidity overnight. The following day, one-tenth volume of a 10× concentration of compounds was added to the wells in an 8-point dilution series. The dilution series was composed of an initial 1:5 dilution of a 10 mM stock of compound in DMSO, followed by serial 1:4 dilutions in DMSO, then a 1:20 dilution in growth medium prior to the 1:10 dilution into the cell plate. Final DMSO concentration on the cells was 0.1%, there were control wells treated with both 0.1% DMSO and no DMSO. The typical dilution range is 10 μM to 0.6 nM. Once the compound was added to the cells, plates were incubated for 3 days at 37° C., 5% CO2 at 95% humidity. On the third day, after allowing all cells and reagents to come to room temperature, 25 μL of CellTiter-Glo reagent (Promega # G7573) was added to the wells. Plates were shaken on a platform for 10 minutes prior to reading luminescence for 0.1 seconds. The signal of the control wells was taken as 100% growth and growth inhibition was expressed as percent of control. IC50 values were determined from the percent of control data using a standard four-parameter model.
The IC50 values of exemplary compounds of the present invention determined in a cell proliferation assay using the MKN45 cell line according to the procedures described herein in at least duplicate experiments are abbreviated as follows and are shown in Table 2: A, IC50≦0.1 μM; B, 0.1 μM<IC50≦1 μM; C, 1 μM<IC50≦10 μM; D, IC50>10 μM; ND, not determined. The Example # of Table 2 corresponds to the compound example number as illustrated in the Examples section.

For another experiment, the target named is T1, phosphorylated c-MET (Homo sapiens, UniProt P08581).
T1 construct: endogenous in cells; host or cells: MKN45
T1 sequence (P08581 25-1390): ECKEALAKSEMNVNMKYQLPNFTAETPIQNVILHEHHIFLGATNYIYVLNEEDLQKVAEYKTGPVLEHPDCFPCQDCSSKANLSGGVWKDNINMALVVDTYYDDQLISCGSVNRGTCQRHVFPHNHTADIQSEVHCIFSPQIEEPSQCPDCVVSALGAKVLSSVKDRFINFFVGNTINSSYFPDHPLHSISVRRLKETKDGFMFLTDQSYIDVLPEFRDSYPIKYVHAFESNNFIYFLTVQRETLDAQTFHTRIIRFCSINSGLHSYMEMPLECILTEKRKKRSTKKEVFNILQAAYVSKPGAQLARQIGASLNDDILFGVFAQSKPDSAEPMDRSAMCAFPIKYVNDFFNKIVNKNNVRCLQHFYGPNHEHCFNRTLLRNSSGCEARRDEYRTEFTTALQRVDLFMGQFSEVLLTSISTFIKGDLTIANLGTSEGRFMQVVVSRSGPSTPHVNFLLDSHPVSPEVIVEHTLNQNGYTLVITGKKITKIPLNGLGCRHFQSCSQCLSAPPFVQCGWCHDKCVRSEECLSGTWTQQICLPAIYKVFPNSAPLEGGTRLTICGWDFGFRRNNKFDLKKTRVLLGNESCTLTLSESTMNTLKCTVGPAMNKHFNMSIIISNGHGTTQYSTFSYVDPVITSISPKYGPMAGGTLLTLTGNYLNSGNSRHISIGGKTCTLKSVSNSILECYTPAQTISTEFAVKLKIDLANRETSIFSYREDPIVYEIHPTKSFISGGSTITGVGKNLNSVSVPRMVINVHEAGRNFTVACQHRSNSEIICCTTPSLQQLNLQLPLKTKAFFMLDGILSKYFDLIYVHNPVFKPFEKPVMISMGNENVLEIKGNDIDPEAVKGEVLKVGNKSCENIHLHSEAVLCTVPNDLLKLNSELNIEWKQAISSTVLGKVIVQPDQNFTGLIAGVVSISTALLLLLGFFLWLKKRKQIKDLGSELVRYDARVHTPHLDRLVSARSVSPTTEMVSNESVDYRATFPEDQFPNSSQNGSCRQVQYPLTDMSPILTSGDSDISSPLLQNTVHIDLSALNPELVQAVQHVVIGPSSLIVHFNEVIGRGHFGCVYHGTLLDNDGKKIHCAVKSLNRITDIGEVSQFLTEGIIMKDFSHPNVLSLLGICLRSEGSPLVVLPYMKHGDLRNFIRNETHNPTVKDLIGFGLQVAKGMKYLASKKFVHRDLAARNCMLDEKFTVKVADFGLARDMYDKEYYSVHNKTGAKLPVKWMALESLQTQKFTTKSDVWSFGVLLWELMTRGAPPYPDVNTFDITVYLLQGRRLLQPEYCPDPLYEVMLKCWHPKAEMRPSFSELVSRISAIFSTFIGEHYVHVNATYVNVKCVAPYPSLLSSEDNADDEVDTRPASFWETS
In words: c-MET cell mechanistic assay (phosphorylated c-MET in MKN45 cells). It is filed as cell-based. The following applies: MKN45 cell line, four hours incubation, phosphorylated c-MET levels, at least duplicate experiments; read-out: Met mech IC50. Here is the method:
The cellular activity of the compounds of the present invention may be determined by the following procedure. MKN45 cells were plated in Falcon 3072 96-well plates in growth media (RPMI, 10% FBS, 1% L-glutamine) at a density of 5000 cells/well and incubated at 37° C., 5% CO2 overnight. The following day, one-tenth volume of a 10× concentration of compounds was added to the wells in a 6-point dilution series. The dilutions series was composed of an initial 1:5 dilution in DMSO, followed by a 1:10 dilution in growth media, for a final DMSO concentration on cells of 0.5%. Control wells were treated with 0.5% DMSO. The typical range of dilution was 10 μM to 3 nM. Once compound was added to the cells, plates were incubated for four hours at 37° C., 5% CO2. Plates were then washed in PBS, and lysed in triton-based lysis buffer. Lysates were transferred to a precoated capture plate made by Biosource (Cat # KH00281). The phosphorylated c-MET levels were measured by incubating with a rabbit polyclonal antibody against phosphorylated c-MET ([pYpYpY1230/1234/1235]) followed by an anti-rabbit antibody conjugated to HRP. Signal was measured on a Wallac Victor plate reader at 450 nm. The DMSO signal of the control wells was defined as 100% and the percent of inhibition of phosphorylated c-Met was expressed as percent of control. IC50 values were determined from the percent of control data using a standard four-parameter model.
The IC50 values of exemplary compounds of the present invention determined in a c-MET cell mechanistic assay using the MKN45 cell line according to the procedures described herein in at least duplicate experiments are abbreviated as follows and are shown in Table 3: A, IC50≦0.1 μM; B, 0.1 μM<IC50≦1 μM; C, 1 μM<IC50≦10 μM; D, IC50>10 μM; ND, not determined. The Example # of Table 3 corresponds to the compound example number as illustrated in the Examples section.

With `C[C@H](c1c(Cl)ccc(F)c1Cl)c1c[nH]c2ncc(-c3cnn(C4CCN(S(C)(=O)=O)CC4)c3)cc12` [Example 73, 3-[(S)-1-(2,6-Dichloro-3-fluorophenyl)ethyl]-5-[1-(1-methane-sulfonylpiperidin-4-yl)-1H-pyrazol-4-yl]-1H-pyrrolo[2,3-b]pyridine], the IC50 in the experiment on MKN45 cells and at phosphorylated c-MET was no more than 100 nM each time.
For the compound `CC(c1c(Cl)ccc(F)c1Cl)c1c[nH]c2ncc(C3=CCN(C(=O)[C@H](C)O)CC3)cc12` (stereo partly drawn) [Example 41, (S)-1-(4-{3-[1-(2,6-Dichloro-3-fluorophenyl)ethyl]-1H-pyrrolo[2,3-b]-pyridin-5-yl}-3,6-dihydro-2H-pyridin-1-yl)-2-hydroxypropan-1-one], the figures for the IC50 in the experiment with MKN45 cells and on phosphorylated c-MET were 100 to 1000 nM and no more than 100 nM, respectively.
For `CC(c1c(Cl)ccc(F)c1Cl)c1c[nH]c2ncc(C3=CCN(C(=O)[C@@H](C)O)CC3)cc12` (stereo partly drawn) [Example 40, (R)-1-(4-{3-[1-(2,6-Dichloro-3-fluorophenyl)ethyl]-1H-pyrrolo[2,3-b]-pyridin-5-yl}-3,6-dihydro-2H-pyridin-1-yl)-2-hydroxypropan-1-one], in that order: 100 to 1000 nM and no more than 100 nM.
For `COCCNC(=O)c1ccc(-c2cnc3[nH]cc(C(C)c4c(Cl)ccc(F)c4Cl)c3c2)cc1` (stereo not drawn) [Example 6, 4-{3-[1-(2,6-Dichloro-3-fluorophenyl)ethyl]-1H-pyrrolo[2,3-b]pyridin-5-yl}-N-(2-methoxyethyl)benzamide], in that order: 1000 to 10000 nM and 100 to 1000 nM.
For `CC(c1c(Cl)ccc(F)c1Cl)c1c[nH]c2ncc(-c3ccc(C(=O)NCCN(C)C)cc3)cc12` (stereo not drawn) [Example 20, 4-{3-[1-(2,6-Dichloro-3-fluorophenyl)ethyl]-1H-pyrrolo[2,3-b]pyridin-5-yl}-N-(2-dimethylaminoethyl)benzamide], in that order: 100 to 1000 nM and 100 to 1000 nM.
`C[C@H](c1c(Cl)ccc(F)c1Cl)c1c[nH]c2ncc(-c3cnn(C4CCNCC4)c3)cc12` [Example 80, 3-[(S)-1-(2,6-Dichloro-3-fluorophenyl)ethyl]-5-(1-piperidin-4-yl-1H-pyrazol-4-yl)-1H-pyrrolo[2,3-b]pyridine]: the IC50 in the experiment with MKN45 cells and at phosphorylated c-MET was no more than 100 nM in each case.
`CC(=O)N1CC=C(c2cnc3[nH]cc(C(C)c4c(Cl)ccc(F)c4Cl)c3c2)CC1` (stereo not drawn) [Example 39, 1-(4-{3-[1-(2,6-Dichloro-3-fluorophenyl)ethyl]-1H-pyrrolo[2,3-b]pyridin-5-yl}-3,6-dihydro-2H-pyridin-1-yl)-ethanone]: the IC50 in the experiment with MKN45 cells and on phosphorylated c-MET was 100 to 1000 nM each time.
Take `CC(c1c(Cl)ccc(F)c1Cl)c1c[nH]c2ncc(-c3cnn(CCN4CCOCC4)c3)cc12` (stereo not drawn) [Example 31, 3-[1-(2,6-Dichloro-3-fluorophenyl)ethyl]-5-[1-(2-morpholin-4-ylethyl)-1H-pyrazol-4-yl]-1H-pyrrolo[2,3-b]pyridine]: the IC50 in the experiment on MKN45 cells and at phosphorylated c-MET was no more than 100 nM throughout.
As for `CC(c1c(Cl)ccc(F)c1Cl)c1c[nH]c2ncc(C3=CCN(C(=O)CO)CC3)cc12` (stereo not drawn) [Example 43, 1-(4-{3-[1-(2,6-Dichloro-3-fluorophenyl)ethyl]-1H-pyrrolo[2,3-b]pyridin-5-yl}-3,6-dihydro-2H-pyridin-1-yl)-2-hydroxyethanone], the IC50 in the experiment with MKN45 cells and on phosphorylated c-MET was no more than 100 nM in each case.
Take `CC(c1c(Cl)ccc(F)c1Cl)c1c[nH]c2ncc(-c3ccc(C(=O)N4CCN(C)CC4)cc3)cc12` (stereo not drawn) [Example 15, (4-{3-[1-(2,6-Dichloro-3-fluorophenyl)ethyl]-1H-pyrrolo[2,3-b]pyridin-5-yl}phenyl)-(4-methylpiperazin-1-yl)methanone]: the results for the IC50 in the experiment with MKN45 cells and at phosphorylated c-MET were 100 to 1000 nM and no more than 100 nM, respectively.
On the same counts, the results for `CNS(=O)(=O)c1ccc(-c2cnc3[nH]cc(C(C)c4c(Cl)ccc(F)c4Cl)c3c2)cc1` (stereo not drawn) [Example 23, 4-{3-[1-(2,6-Dichloro-3-fluorophenyl)ethyl]-1H-pyrrolo[2,3-b]pyridin-5-yl}-N-methylbenzenesulfonamide] are 1000 to 10000 nM and 100 to 1000 nM.
Turning to `CC(c1c(Cl)ccc(F)c1Cl)c1c[nH]c2ncc(-c3ccc(C(N)=O)cc3)cc12` (stereo not drawn) [Example 14, 4-{3-[1-(2,6-Dichloro-3-fluorophenyl)ethyl]-1H-pyrrolo[2,3-b]pyridin-5-yl}benzamide], the IC50 with MKN45 cells was 1000 to 10000 nM.
As for `CC(c1c(Cl)ccc(F)c1Cl)c1c[nH]c2ncc(-c3ccc(N4CCN(C)CC4)cc3)cc12` (stereo not drawn) [Example 16, 3-[1-(2,6-Dichloro-3-fluorophenyl)ethyl]-5-[4-(4-methylpiperazin-1-yl)phenyl]-1H-pyrrolo[2,3-b]pyridine], the IC50 in the experiment on MKN45 cells was 100 to 1000 nM.
As for `CC(=O)Nc1ccc(-c2cnc3[nH]cc(C(C)c4c(Cl)ccc(F)c4Cl)c3c2)cc1` (stereo not drawn) [Example 10, N-(4-{3-[1-(2,6-Dichloro-3-fluorophenyl)ethyl]-1H-pyrrolo[2,3-b]pyridin-5-yl}phenyl)acetamide], the IC50 in the experiment on MKN45 cells lay within 1000 to 10000 nM.
In the case of `CC(c1c(Cl)ccc(F)c1Cl)c1c[nH]c2ncc(-c3ccc(O)cc3)cc12` (stereo not drawn) [Example 8, 4-{3-[1-(2,6-Dichloro-3-fluorophenyl)ethyl]-1H-pyrrolo[2,3-b]pyridin-5-yl}phenol], the IC50 in the experiment on MKN45 cells lay in the range of 1000 to 10000 nM.
The same measure, in the same setting: as for `CC(c1c(Cl)ccc(F)c1Cl)c1c[nH]c2ncc(-c3cncnc3)cc12` (stereo not drawn) [Example 12, 3-[1-(2,6-Dichloro-3-fluorophenyl)ethyl]-5-pyrimidin-5-yl-1H-pyrrolo[2,3-b]pyridine], the figure is 1000 to 10000 nM; as for `CC(c1c(Cl)ccc(F)c1Cl)c1c[nH]c2ncc(-c3ccc(C(=O)NC4CCCCC4)cc3)cc12` (stereo not drawn) [Example 21, N-Cyclohexyl-4-{3-[1-(2,6-dichloro-3-fluorophenyl)ethyl]-1H-pyrrolo[2,3-b]pyridin-5-yl}benzamide], 1000 to 10000 nM.
On to `CC(c1c(Cl)ccc(F)c1Cl)c1c[nH]c2ncc(-c3ccc(NS(C)(=O)=O)cc3)cc12` (stereo not drawn) [Example 17, N-(4-{3-[1-(2,6-Dichloro-3-fluorophenyl)ethyl]-1H-pyrrolo[2,3-b]pyridin-5-yl}phenyl)methanesulfonamide], for which the IC50 with MKN45 cells is 1000 to 10000 nM.
On the same count and under the same terms, as for `CC(c1c(Cl)ccc(F)c1Cl)c1c[nH]c2ncc(-c3ccc(N4CCOCC4)cc3)cc12` (stereo not drawn) [Example 25, 3-[1-(2,6-Dichloro-3-fluorophenyl)ethyl]-5-(4-morpholin-4-ylphenyl)-1H-pyrrolo[2,3-b]pyridine], the figure is 100 to 1000 nM.
Turning to `C[C@@H](c1c(Cl)ccc(F)c1Cl)c1c[nH]c2ncc(-c3cnn(C4CCN(C=O)CC4)c3)cc12` [Example 82, 4-(4-{3-[(R)-1-(2,6-Dichloro-3-fluorophenyl)ethyl]-1H-pyrrolo[2,3-b]-pyridin-5-yl}-pyrazol-1-yl)-piperidine-1-carbaldehyde], at phosphorylated c-MET, the IC50 was 100 to 1000 nM.
With `CC(c1c(Cl)ccc(F)c1Cl)c1c[nH]c2ncc(-c3ccsc3)cc12` (stereo not drawn) [Example 9, 3-[1-(2,6-Dichloro-3-fluorophenyl)ethyl]-5-thiophen-3-yl-1H-pyrrolo[2,3-b]pyridine], in the experiment on MKN45 cells, the IC50 was 1000 to 10000 nM.
Same read-out and setting: as for `CC(c1c(Cl)ccc(F)c1Cl)c1c[nH]c2ncc(-c3ccc(N(C)C)cc3)cc12` (stereo not drawn) [Example 11, (4-{3-[1-(2,6-Dichloro-3-fluorophenyl)ethyl]-1H-pyrrolo[2,3-b]pyridin-5-yl}phenyl)dimethylamine], the figure is 1000 to 10000 nM.
